# In patent US7872047B2, “Esters of long-chain alcohols and preparation thereof” (Eastman Chemical Company, priority 2008, dated 2011):
# Experiment: Oxidative Stability Index (OSI) accelerated oxidation test in simple skin lipid model
# Conditions: for onset of lipid oxidation over the untreated control (antioxidant effect): 1% idebenone, 1% or 2% idebenone linoleate in SLMM, p<0.01; for Avg. OSI (stdev) Hours at 80° C.: air bubbled, induction period, triplicate; for Calculated OSI Hours at 35° C.: estimated for 35° C. (skin surface temperature) with instrument software
# Description: Oxidation of skin lipids can contribute to an aged appearance and other undesirable effects on skin condition. A simple skin lipid model (based on fatty acids found in skin) can be used to evaluate and predict the topical effectiveness of different compounds to inhibit skin lipid oxidation and improve the condition of skin (Narayanan, S.: Hunerbein, A.: Getie, M.; Jackel, A.; Neubert, R. H. Scavenging properties of metronidazole on free oxygen radicals in a skin lipid model system. J Pharm Pharmacol. 2007 August;59(8):1125-30).
# Lipid oxidation can be measured by a number of analytical methods. An accelerated oxidation test such as the Oxidative Stability Index (OSI) is accepted as a method for determining both oxidative stability of lipids as well as antioxidant effectiveness (Bartee, S. D.; Kim, H. J.; Min, D. B. Effects of antioxidants on the oxidative stability of oils containing arachidonic, docosapentaaenoic and docosahexaenoic acids. J Amer Oil Chem Soc 2007 84: 363-68.; Official methods and recommended practices of the AOCS, 5th Edition, AOCS 1998).
# In this example, the OSI method was used to assess the antioxidant activity of idebenone esters by measuring their ability to inhibit lipid oxidation in a mixture of fatty acids that are present in skin lipids. The composition of the simple skin lipid model tested is 74% linoleic acid; 21% oleic acid; 4% linolenic acid. The simple skin lipid model includes a large proportion of polyunsaturated and unsaturated fatty acids, which are prone to oxidation.
# The untreated sample was composed of the simple skin lipid model (fatty acid mixture). The treated samples were prepared by dissolving the test materials in the simple skin lipid model at 1 or 2 wt % at room temperature. The treated and untreated lipid matrices were oxidized by heating the test solutions to 80° C. and bubbling air through the samples. The OSI (induction period in hours) was determined using an Oxidative Stability Instrument (Omnion, Inc. Rockville Md.) and the method of Bartee et al., 2007. Untreated and treated samples were tested in triplicate, and the average and standard deviation are included in Table 1. The OSI (induction period in hours) was also estimated for oxidation at 35° C. (simulating skin surface temperature) using the software supplied with the instrument.
SMILES,onset of lipid oxidation over the untreated control (antioxidant effect),Avg. OSI (stdev) Hours at 80° C. (1 wt % test material in SLMM),Calculated OSI Hours at 35° C. (1 wt % test material in SLMM),Avg. OSI (stdev) Hours at 80° C. (2 wt % test material in SLMM),Calculated OSI Hours at 35° C. (2 wt % test material in SLMM)
"CCCCC/C=C\C/C=C\CCCCCCCC(=O)OCCCCCCCCCCC1=C(C)C(=O)C(OC)=C(OC)C1=O [idebenone linoleate, Idebenone Linoleate]",significantly delayed the onset of lipid oxidation,2.50 (0.54) Hours,56.2 h,3.22 (0.67) Hours,72.4 h
"COC1=C(OC)C(=O)C(CCCCCCCCCCO)=C(C)C1=O [idebenone, Idebenone, reference compound]",significantly delayed the onset of lipid oxidation,2.77 (0.14) Hours,62.3 h,–,–
